Where two headings read alike, the source gives them in different places.
Tests used:
[1] = system: farnesylation of Ras protein in NIH3T3 cells; test: Inhibitory effect on farnesylation of Ras protein in NIH3T3 cells into which an activated ras gene was introduced (SDS-PAGE, anti-Ras antibody, densitometry); format: cell-based; conditions: for inhibitory activity on farnesylation of Ras proteins in the presence of L-654,969: in the presence of L-654,969 (0.15 μM or 5 μM)
Protocol: Inhibitory effect on farnesylation of Ras protein in NIH3T3 cells into which an activated ras gene was introduced, was measured by using the compounds prepared in Preparation Examples 3 and 5 as PFT inhibitors and L-654,969 (an active metabolite of simvastatin) as a hydroxymethylglutaryl CoA reductase inhibitor.
The cells were cultured for 24 hours, peeled off the plates and dissolved in accordance with the method disclosed in J. Biol. Chem., vol. 268, 18415 (1993). The cell solutions were centrifuged at 12000 g for 5 minutes, and the supernatants were used as cell extracts. The cell extracts were subjected to SDS polyacrylamide gel electrophoresis to separate the farnesylated Ras protein and the unfarnesylated Ras protein. […] After the anti-primary antibody, a peroxidaze-conjugated antibody (a secondary antibody) was allowed to react, the Ras protein was detected by mean of a chemoluminescence amplification kit. The proportion of the unfarnesylated Ras protein was determined by using a densitometer and defined as the inhibitory activity.

BMJ1 cells = test: Inhibitory activity on proliferation of transformed BMJ1 cells (SRB method); format: cell-based, mouse; conditions: for IC50: Mus musculus, transformed BMJ1 cells; for 50% cell proliferation inhibitory activity in the presence of L-654,969: presence of 0.8 μM of L-654,969
Protocol: The BMJ1 cells which were obtained by introducing a hormone-inducible activated ras gene into BALB3T3 cells, a mouse-derived established cell line, were transformed by adding dexamethasone to the culture so as to produce an activated Ras protein. To assess the inhibitory effects of the PFT inhibitors on cell proliferation, the 50% proliferation inhibitory concentration for each compound was calculated by adding each compound to a transformed BMJ1 cell culture at various concentrations, and counting the number of cells after incubation. The cell numbers were counted in accordance with the SRB method disclosed in Proc. Am. Assoc. Cancer Res., vol.

[2] = PFT inhibitor 1 μM, L-654,969 5 μM, 24 hours
[3] = PFT inhibitor 3 μM, L-654,969 0.15 μM, 24 hours
[4] = PFT inhibitor 3 μM, L-654,969 5 μM, 24 hours
[5] = In the absence of L-654,969, read-out: 50% Proliferation inhibitory concentration (IC50 μM) In the absence of L-654,969
[6] = In the presence of 0.8 μM of L-654,969, read-out: 50% Proliferation inhibitory concentration (IC50 μM) In the presence of 0.8 μM of L-654,969

Row | SMILES | inhibition at 10 µM ([1]; Mus musculus, NIH3T3, PFT inhibitor 10 μM, L-654,969: None, 24 hours, read-out: Inhibitory rate (%) on farnesylation of the Ras proteins) | Inhibitory rate (%) on farnesylation of the Ras proteins [1, 2] | Inhibitory rate (%) on farnesylation of the Ras proteins [1, 3] | Inhibitory rate (%) on farnesylation of the Ras proteins [1, 4] | Inhibitory rate (%) on farnesylation of the Ras proteins ([1]; PFT inhibitor 10 μM, L-654,969 0.15 μM, 24 hours) | Inhibitory rate (%) on farnesylation of the Ras proteins ([1]; PFT inhibitor 10 μM, L-654,969 5 μM, 24 hours) | inhibitory activity on farnesylation of Ras proteins in the presence of L-654,969 [1] | IC50 (BMJ1 cells; [5]) | IC50 (BMJ1 cells; [6]) | 50% cell proliferation inhibitory activity in the presence of L-654,969 (BMJ1 cells) | inhibition of farnesylation of the Ras proteins by L-654,969 by itself ([1]; 0.15 μM or 5 μM, by itself) | inhibition of cell proliferation by L-654,969 alone (BMJ1 cells; 0.8 μM, alone) | inhibition at 3 µM ([1]; Mus musculus, NIH3T3, PFT inhibitor 3 μM, L-654,969: None, 24 hours, read-out: Inhibitory rate (%) on farnesylation of the Ras proteins) | Inhibitory rate (%) on farnesylation of the Ras proteins ([1]; PFT inhibitor 0.3 μM, L-654,969 5 μM, 24 hours) | Inhibitory rate (%) on farnesylation of the Ras proteins ([1]; PFT inhibitor 1 μM, L-654,969 0.15 μM, 24 hours)
1 | C[C@H]([C@H](C/C=C/c1nc2ccccc2o1)c1ccc2c(c1)OCO2)N(Cc1ccc2ccccc2c1)C(=O)CC(CC(=O)O)(C(=O)O)C(=O)O (racemic) [Preparation Example 3, 3-[N-{(1RS,2RS,4E)-5-(2-benzoxazolyl)-1-methyl-2-(3,4-methylenedioxyphenyl)-4-pentenyl}-N-(2-naphthylmethyl)carbamoyl]-1,2,2-propanetricarboxylic acid] | 32% | 55% | 27% | 88% | 67% | 90% | increased synergically and concentration-dependently | 130 µM | 11 µM | increased synergecally and concentration-dependently | – | – | – | – | –
2 | C[C@H]([C@H](C/C=C/c1nc2ccccc2o1)c1ccc2c(c1)OCO2)N(Cc1ccc2ccccc2c1)C(=O)[C@H](O)[C@@H](CC(=O)[O-])C(=O)[O-].[Na+].[Na+] (racemic) [Preparation Example 4, disodium (3RS,4RS)-4-[N-{(1RS,2RS,4E)-5-(2-benzoxazolyl)-1-methyl-2-(3,4-methylenedioxyphenyl)-4-pentenyl}-N-(2-naphthylmethyl)carbamoyl]-3-carboxylato-4-hydroxybutanoate] | – | – | – | – | – | – | – | 105 µM | 6.5 µM | increased synergecally and concentration-dependently | – | – | – | – | –
3 | CCC(C)(C)C(=O)O[C@H]1C[C@@H](C)C=C2C=C[C@H](C)[C@H](CC[C@@H](O)C[C@@H](O)CC(=O)O)[C@H]21 [L-654,969, reference compound] | – | – | – | – | – | – | – | – | – | – | does not inhibit farnesylation of the Ras proteins | does not inhibit cell proliferation alone | – | – | –
4 | C[C@H]([C@H](C/C=C/c1nc2ccccc2o1)c1ccc2c(c1)OCO2)N(Cc1ccc2ccccc2c1)C(=O)C(O)=C(CC(=O)O)C(=O)OC(C)(C)C [Preparation Example 5, 4-[N-{(1R,2R,4E)-5-(2-benzoxazolyl)-1-methyl-2-(3,4-methylenedioxyphenyl)-4-pentenyl}-N-(2-naphthylmethyl)carbamoyl]-3-tert-butoxycarbonyl-4-hydroxy-3-butenoic acid] | – | 86% | 72% | 95% | – | – | increased synergically and concentration-dependently | 3.1 µM | 0.93 µM | increased synergecally and concentration-dependently | – | – | 32% | 43% | 18%
